In article PMC11992225, “Antibacterial compounds against non-growing and intracellular bacteria” (npj Antimicrobials and Resistance, 2025):
Converted amounts (≈) assume the structure as drawn. Like-named read-outs stand apart in the source and are kept apart here.

Experiments:
S. aureus DSM2569 = test: MIC, standard microdilution assay, growing S. aureus; format: cell-based, Staphylococcus aureus; details: for MIC: Staphylococcus aureus
How it was run: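 Broth microdilution was used throughout. UPEC, P. aeruginosa and S. aureus were tested in CA-MHB buffered with 40 mM HEPES (pH 7.4); UPEC was additionally tested in LPM with 30 mM MES (pH 5.5). S. flexneri was grown in TSB. All determinations were run in triplicate.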

non-growing UPEC CFT073 [1] = test: Dilution-regrowth assay (screen, hit validation, dose-response) on stationary-phase UPEC; format: cell-based, Escherichia coli; details: for OD600 at 6hr, Mean: after dilution into drug-free medium; for EC50: Escherichia coli
How it was run: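 Regrowth (OD600 after 6 h, 37 °C) of diluted non-growing CFT073, following 24 h compound treatment of 24 h stationary cultures, defines activity relative to untreated control. Screen at 20 µM, validation at 20, 10, 5 µM (duplicates), dose–response in three biological replicates fitted by five-parameter logistic.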

non-growing UPEC CFT073 [2] = test: Dose-dependent killing analysis (CFU spot-plating) of stationary-phase UPEC; format: cell-based, Escherichia coli
How it was run: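 Killing assessed by CFU counts: overnight 37 °C LB agar spot plates (10 μl drops of 10-fold PBS dilutions) scored at the lowest dilution with distinct colonies. Samples were compound-treated non-growing UPEC CFT073, 200 μl per well. Performed as three biological replicates.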

[3] = test system: non-growing S. aureus DSM2569; test: Dose-dependent killing analysis (CFU spot-plating) of stationary-phase S. aureus; format: cell-based, Staphylococcus aureus; details: for Log10(CFU/ml), Replicate #1 / Log10(CFU/ml), Replicate #2 / Log10(CFU/ml), Replicate #3 / Δlog10(CFU/ml): S. aureus; for Δlog10(CFU/ml): average killing vs before treatment (9,097)
Description: To determine the spectrum of activity of the compounds that were effective against non-growing UPEC, we further assessed their efficacy against the well-characterized Gram-negative and Gram-positive reference strains P. aeruginosa DSM1117 and S. aureus DSM2569, respectively. The cultures were grown and treated for 24 h in 1:4 CA-MHB (pH 7.4). […].
For survival analysis, bacteria were cultivated as described for the dose–response dilution-regrowth assay. Assays with UPEC were conducted at the CBCS screening facility using 96-well plates with a 200 μl sample volume, and compounds were dispensed using the Echo® (Labcyte) system. P. aeruginosa and S. aureus samples were treated according to the protocol used for the dilution-regrowth experiments. Treated samples were serially diluted 10-fold in PBS, and 10 μl drops were spot-plated onto rectangular LB agar plates using either a Beckman NXP robot (for UPEC) or an Integra VIAFLO96 electronic pipette (for P. aeruginosa and S. aureus). The LB agar plates were incubated overnight at 37 °C and scanned. Colonies were counted at the spots of the lowest dilution where individual colonies could be accurately distinguished. Each colony was manually marked on a separate image layer using the GNU Image Manipulation Program, and counted using NIST’s Integrated Colony Enumerator (NICE 1.4) software. The experiments were performed in three biological replicates.

[4] = E. coli in 1:4 CA-MHB (pH 7.4), 0.25 μM
[5] = E. coli in 1:4 CA-MHB (pH 7.4), 0.5 μM
[6] = E. coli in 1:4 CA-MHB (pH 7.4), 1 μM
[7] = E. coli in 1:4 CA-MHB (pH 7.4), 2.5 μM
[8] = E. coli in 1:4 CA-MHB (pH 7.4), 5 μM
[9] = E. coli in 1:4 CA-MHB (pH 7.4), 10 μM
[10] = E. coli in LPM (pH 5.5), 0.25 μM
[11] = E. coli in LPM (pH 5.5), 0.5 μM
[12] = E. coli in LPM (pH 5.5), 2.5 μM

## Cn1c(COP(=O)(NCCBr)NCCBr)cnc1[N+](=O)[O-] [Evofosfamide]
S. aureus DSM2569; S. aureus, CA-MHB with 10 μg/ml PaβN
  MIC (μM) CA-MHB +PAβN: 80 µM (≈ 35.9 µg/mL)
S. aureus DSM2569; DSM2569, pH 7.4, read-out: MIC (μM) 1:4 CA-MHB
  MIC: 80 µM (≈ 35.9 µg/mL)
S. aureus DSM2569; DSM2569, pH 7.4, read-out: MIC (μM) CA-MHB
  MIC: 160 µM (≈ 71.8 µg/mL)
non-growing UPEC CFT073 [1]; [4]
  OD600 at 6hr, Mean: 0.603
non-growing UPEC CFT073 [1]; [5]
  OD600 at 6hr, Mean: 0.596
non-growing UPEC CFT073 [1]; [6]
  OD600 at 6hr, Mean: 0.573
non-growing UPEC CFT073 [1]; [7]
  OD600 at 6hr, Mean: 0.563
non-growing UPEC CFT073 [1]; [8]
  OD600 at 6hr, Mean: 0.534
non-growing UPEC CFT073 [1]; [9]
  OD600 at 6hr, Mean: 0.521
non-growing UPEC CFT073 [1]; E. coli in 1:4 CA-MHB (pH 7.4), 30 μM
  OD600 at 6hr, Mean: 0.480
non-growing UPEC CFT073 [1]; [10]
  OD600 at 6hr, Mean: 0.553
non-growing UPEC CFT073 [1]; [11]
  OD600 at 6hr, Mean: 0.543
non-growing UPEC CFT073 [1]; E. coli in LPM (pH 5.5), 1 μM
  OD600 at 6hr, Mean: 0.392
non-growing UPEC CFT073 [1]; [12]
  OD600 at 6hr, Mean: 0.282
non-growing UPEC CFT073 [1]; E. coli in LPM (pH 5.5), 5 μM
  OD600 at 6hr, Mean: 0.193
non-growing UPEC CFT073 [1]; E. coli in LPM (pH 5.5), 10 μM
  OD600 at 6hr, Mean: 0.124
non-growing UPEC CFT073 [1]; E. coli in LPM (pH 5.5), 30 μM
  OD600 at 6hr, Mean: 0.114
non-growing UPEC CFT073 [1]; pH 5.5
  EC50: 1540 nM
non-growing UPEC CFT073 [1]; pH 5.5, read-out: EC50 (regrowth inhibition curve, Fig. S4)
  EC50: 1540 nM
non-growing UPEC CFT073 [1]; pH 7.4
  EC50: 11600 nM
non-growing UPEC CFT073 [1]; regrowth delay and killing, Figs. 2 and 3
  activity against non-growing UPEC in LPM (pH 5.5) compared to 1:4 CA-MHB (pH 7.4): potentiated by the low pH
non-growing UPEC CFT073 [2]; [4]
  Log10(CFU/ml), Replicate #1: 9.398 Log10(CFU/ml)
  Log10(CFU/ml), Replicate #2: 8.477 Log10(CFU/ml)
  Log10(CFU/ml), Replicate #3: 8.954 Log10(CFU/ml)
non-growing UPEC CFT073 [2]; E. coli in 1:4 CA-MHB (pH 7.4), 0.25 μM, average killing vs before treatment (8.977)
  Δlog10(CFU/ml): 0.034 log10(CFU/ml)
non-growing UPEC CFT073 [2]; [5]
  Log10(CFU/ml), Replicate #1: 9.279 Log10(CFU/ml)
  Log10(CFU/ml), Replicate #2: 9.114 Log10(CFU/ml)
  Log10(CFU/ml), Replicate #3: 8.301 Log10(CFU/ml)
non-growing UPEC CFT073 [2]; E. coli in 1:4 CA-MHB (pH 7.4), 0.5 μM, average killing vs before treatment (8.977)
  Δlog10(CFU/ml): 0.079 log10(CFU/ml)
non-growing UPEC CFT073 [2]; [6]
  Log10(CFU/ml), Replicate #1: 9.477 Log10(CFU/ml)
  Log10(CFU/ml), Replicate #2: 8.845 Log10(CFU/ml)
  Log10(CFU/ml), Replicate #3: 8.491 Log10(CFU/ml)
non-growing UPEC CFT073 [2]; E. coli in 1:4 CA-MHB (pH 7.4), 1 μM, average killing vs before treatment (8.977)
  Δlog10(CFU/ml): 0.039 log10(CFU/ml)
non-growing UPEC CFT073 [2]; [7]
  Log10(CFU/ml), Replicate #1: 9.415 Log10(CFU/ml)
  Log10(CFU/ml), Replicate #2: 8.954 Log10(CFU/ml)
  Log10(CFU/ml), Replicate #3: 8.491 Log10(CFU/ml)
non-growing UPEC CFT073 [2]; E. coli in 1:4 CA-MHB (pH 7.4), 2.5 μM, average killing vs before treatment (8.977)
  Δlog10(CFU/ml): 0.024 log10(CFU/ml)
non-growing UPEC CFT073 [2]; [8]
  Log10(CFU/ml), Replicate #1: 8.778 Log10(CFU/ml)
  Log10(CFU/ml), Replicate #2: 7.845 Log10(CFU/ml)
  Log10(CFU/ml), Replicate #3: 8.301 Log10(CFU/ml)
non-growing UPEC CFT073 [2]; E. coli in 1:4 CA-MHB (pH 7.4), 5 μM, average killing vs before treatment (8.977)
  Δlog10(CFU/ml): 0.669 log10(CFU/ml)
non-growing UPEC CFT073 [2]; [9]
  Log10(CFU/ml), Replicate #1: 9.000 Log10(CFU/ml)
  Log10(CFU/ml), Replicate #2: 8.000 Log10(CFU/ml)
  Log10(CFU/ml), Replicate #3: 7.778 Log10(CFU/ml)
non-growing UPEC CFT073 [2]; E. coli in 1:4 CA-MHB (pH 7.4), 10 μM, average killing vs before treatment (8.977)
  Δlog10(CFU/ml): 0.718 log10(CFU/ml)
non-growing UPEC CFT073 [2]; [10]
  Log10(CFU/ml), Replicate #1: 6.477 Log10(CFU/ml)
  Log10(CFU/ml), Replicate #2: 6.568 Log10(CFU/ml)
  Log10(CFU/ml), Replicate #3: 8.176 Log10(CFU/ml)
non-growing UPEC CFT073 [2]; E. coli in LPM (pH 5.5), 0.25 μM, average killing vs before treatment (7.350)
  Δlog10(CFU/ml): 0.277 log10(CFU/ml)
non-growing UPEC CFT073 [2]; [11]
  Log10(CFU/ml), Replicate #1: 6.602 Log10(CFU/ml)
  Log10(CFU/ml), Replicate #2: 6.903 Log10(CFU/ml)
  Log10(CFU/ml), Replicate #3: 8.230 Log10(CFU/ml)
non-growing UPEC CFT073 [2]; E. coli in LPM (pH 5.5), 0.5 μM, average killing vs before treatment (7.350)
  Δlog10(CFU/ml): 0.105 log10(CFU/ml)
non-growing UPEC CFT073 [2]; E. coli in LPM (pH 5.5), 1 μM
  Log10(CFU/ml), Replicate #1: 6.279 Log10(CFU/ml)
  Log10(CFU/ml), Replicate #2: 6.845 Log10(CFU/ml)
  Log10(CFU/ml), Replicate #3: 8.000 Log10(CFU/ml)
non-growing UPEC CFT073 [2]; E. coli in LPM (pH 5.5), 1 μM, average killing vs before treatment (7.350)
  Δlog10(CFU/ml): 0.309 log10(CFU/ml)
non-growing UPEC CFT073 [2]; [12]
  Log10(CFU/ml), Replicate #1: 6.301 Log10(CFU/ml)
  Log10(CFU/ml), Replicate #2: 6.079 Log10(CFU/ml)
  Log10(CFU/ml), Replicate #3: 7.954 Log10(CFU/ml)
non-growing UPEC CFT073 [2]; E. coli in LPM (pH 5.5), 2.5 μM, average killing vs before treatment (7.350)
  Δlog10(CFU/ml): 0.572 log10(CFU/ml)
non-growing UPEC CFT073 [2]; E. coli in LPM (pH 5.5), 5 μM
  Log10(CFU/ml), Replicate #1: 5.699 Log10(CFU/ml)
  Log10(CFU/ml), Replicate #2: 5.447 Log10(CFU/ml)
  Log10(CFU/ml), Replicate #3: 7.602 Log10(CFU/ml)
non-growing UPEC CFT073 [2]; E. coli in LPM (pH 5.5), 5 μM, average killing vs before treatment (7.350)
  Δlog10(CFU/ml): 1.101 log10(CFU/ml)
non-growing UPEC CFT073 [2]; E. coli in LPM (pH 5.5), 10 μM
  Log10(CFU/ml), Replicate #1: 5.176 Log10(CFU/ml)
  Log10(CFU/ml), Replicate #2: 4.954 Log10(CFU/ml)
  Log10(CFU/ml), Replicate #3: 7.146 Log10(CFU/ml)
non-growing UPEC CFT073 [2]; E. coli in LPM (pH 5.5), 10 μM, average killing vs before treatment (7.350)
  Δlog10(CFU/ml): 1.592 log10(CFU/ml)
[3]; 0.1 μM
  Log10(CFU/ml), Replicate #1: 9.580 Log10(CFU/ml)
  Log10(CFU/ml), Replicate #2: 8.996 Log10(CFU/ml)
  Log10(CFU/ml), Replicate #3: 9.049 Log10(CFU/ml)
  Δlog10(CFU/ml): -0.111 log10(CFU/ml)
[3]; 0.5 μM
  Log10(CFU/ml), Replicate #1: 9.362 Log10(CFU/ml)
  Log10(CFU/ml), Replicate #2: 9.017 Log10(CFU/ml)
  Log10(CFU/ml), Replicate #3: 8.881 Log10(CFU/ml)
  Δlog10(CFU/ml): 0.011 log10(CFU/ml)
[3]; 2.5 μM
  Log10(CFU/ml), Replicate #1: 8.863 Log10(CFU/ml)
  Log10(CFU/ml), Replicate #2: 8.724 Log10(CFU/ml)
  Log10(CFU/ml), Replicate #3: 8.663 Log10(CFU/ml)
  Δlog10(CFU/ml): 0.347 log10(CFU/ml)
[3]; 10 μM
  Log10(CFU/ml), Replicate #1: 5.954 Log10(CFU/ml)
  Log10(CFU/ml), Replicate #2: 5.845 Log10(CFU/ml)
  Log10(CFU/ml), Replicate #3: 5.748 Log10(CFU/ml)
  Δlog10(CFU/ml): 3.248 log10(CFU/ml)
[3]; at 10 µM, 24 h treatment
  reduction of non-growing S. aureus: below the limit of detection
